{"source": "patent US10799442B2", "about": "“Compounds useful in the treatment and/or care of the skin, hair, nails, and/or mucous membranes” (LUBRIZOL ADVANCED MATERIALS, INC., priority 2015, dated 2020)", "key": {"KLF4": {"system": "KLF4", "test": "Modulation of stem cell markers in HEKa, Real Time PCR Arrays (KLF4 mRNA)", "format": "cell-based, Human", "details": "48 hours", "method": "The candidate compound is evaluated for the modulation of several stem cell markers, those transcription factors regulated by miRNA145 (SOX2, OCT4, KLF4 and MYC). Gene expression profiles are analyzed by Real Time PCR Arrays using a 96-well panel for use with SYBR® Green (BioRad) to detect mRNA expression levels of stem cell markers plus three housekeeping genes, and five controls, in Human Epidermal Keratinocytes from adult (HEKa) (Cascade Biologics).\nHEKa cells are seeded at 6.0×10^5 cells/well in 6-well plates and incubated in culture medium, Epilife with defined Growth Supplement (EDGS) (Cascade Biologics), for 24 hours at 37° C. in a water-saturated atmosphere of 95% air and 5% CO2. After 24 hours, the medium is removed and the cells are incubated with the synthetic peptide DD14024 at several concentrations in a culture medium. Cells are incubated with culture medium only and these provide the basal conditions. After 48 hours of treatment at 37° C. in a CO2 incubator, the cells are lysed directly in the wells, and RNA is purified following the protocol described on the RNeasy Mini kit (Qiagen) according to the manufacturer's protocol. After RNA elution, quantification and analysis of purity of RNA samples are performed with a biophotometer (Eppendorf). For each sample, 2 μg of high quality RNA is retrotranscribed with iScript Advanced (BioRad) in a final volume of 20 μl. The complete reaction mix is incubated in a thermal cycler (Eppendorf) at 42° C. for 30 minutes and the reaction is stopped at 85° C. for 5 minutes (?). Complementary DNA is amplified by qPCR in a real-time PCR thermocycler (BioRad) using SYBR Green Supermix (BioRad) in the 96-well panel for use with SYBR® Green (BioRad). SYBR Green binds to double-stranded DNA molecules and emits fluorescence which is quantified; the fluorescence intensity is proportional to the amount of the product in the PCR reaction. […] Fold change relative to the expression of the sample genes and reference genes is calculated using normalized expression (ΔΔ(Ct)) method using CFX Manager Software (BioRad). […]"}, "p63": {"system": "p63", "test": "Activation of the pool of epidermal stem cell in reconstructed human epidermal tissue (RHE), p63 immunohistochemistry", "format": "cell-based", "details": "p63 immunofluorescence, 10 μg/ml, 24 hours", "method": "Therefore, an increase in the expression of p63 would mean a higher regenerative potential compared to basal conditions.\nThe SkinEthic human tissue models (RHE) are removed from the agarose-nutrient solution in the multiwell plate immediately after arrival and are placed in a 6-well plate in which each well has previously be filled with SkinEthic Growth Medium (EPISKIN). After overnight incubation at 37° C., 5% CO2, the medium is removed. Then, the tissue models are incubated with the candidate peptide at 10 μg/ml at 37° C. and 5% CO2 for 24 hours. The tissue models are embedded in Tissue Teck OCT compound (Aname™). […]\nThe expression of p63 is evaluated by immunohistochemistry with a specific primary antibody and a fluorescently labelled secondary antibody. […] At the end of the incubation, slides are washed with PBS and are incubated with Alexa Fluor® 488 Goat anti-rabbit IgG (H+L) secondary antibody (Invitrogen, green fluorescence emission dye) 1 hour at room temperature in a dark humidified chamber. […]\nMicroscopical observations are performed with a Zeiss fluorescence microscope and photographs of each condition are taken with the associated camera. From each fluorescence image of p63, values of the product of Mean Intensity and Area are quantified and normalized by control (basal condition, treated with SkinEthic Growth Medium). […]"}}, "data": [{"substance": "Ac-QEMRMQ-OH [DD14024, Ac-Gln-Glu-Met-Arg-Met-Gln-OH]", "values": [{"measurement": "Fold induction respect to basal conditions", "setting": "KLF4; 0.001 mg/ml", "result": "1.66 ± 0.18"}, {"measurement": "Fold induction respect to basal conditions", "setting": "KLF4; 0.005 mg/ml", "result": "2.42 ± 0.50"}, {"measurement": "Fold induction respect to basal conditions", "setting": "KLF4; 0.01 mg/ml", "result": "1.71 ± 0.40"}, {"measurement": "Fold induction respect to basal conditions", "setting": "p63; 1 experiment", "result": "1.63 ± 0.16"}, {"measurement": "Fold induction respect to basal conditions", "setting": "p63; mean of four experiments", "result": "2.11 ± 0.23"}]}]}
